# Columns and labels:
# Format in all cases: in vivo
# [1] = tested on: sedge, umbrella (small-flower umbrella sedge, Cyperus difformis); assay: Test B flooded paddy; conditions: Cyperus difformis, 336 h; 250 g ai/ha, Flood, 13 to 15 days, scale 0 (no effect) to 100 (complete control); read-out: Plant response rating, Sedge, Umbrella
# How it was run: (§1)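 Test compounds are applied straight into paddy water held 3 cm above the soil surface, with that flood maintained for the whole test. After 13 to 15 days in the greenhouse, each species is scored visually relative to controls.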
# rice (Oryza sativa) = assay: Test B flooded paddy; conditions: Oryza sativa, 336 h; 250 g ai/ha, Flood, 13 to 15 days, scale 0 (no effect) to 100 (complete control); read-out: Plant response rating, Rice
# How it was run: as §1
# [2] = tested on: ducksalad (Heteranthera limosa); assay: Test B flooded paddy; conditions: Heteranthera limosa, 336 h; 250 g ai/ha, Flood, 13 to 15 days, scale 0 (no effect) to 100 (complete control); read-out: Plant response rating, Ducksalad
# How it was run: as §1
# [3] = tested on: barnyardgrass (Echinochloa crus-galli); assay: Test B flooded paddy; conditions: Echinochloa crus-galli, 336 h; 250 g ai/ha, Flood, 13 to 15 days, scale 0 (no effect) to 100 (complete control); read-out: Plant response rating, Barnyardgrass
# How it was run: as §1
# [4] = tested on: ragweed (common ragweed, Ambrosia elatior); assay: Test A postemergence; conditions: Ambrosia artemisiifolia, post-emergence, 240 h, 0 to 100 scale, read-out: Plant response rating, Ragweed; for pest or weed control at 125 g/ha: 125 g ai/ha; for pest or weed control at 500 g/ha: 500 g ai/ha
# How it was run: (§2)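 Visual injury scored 0–100 (100 = complete control) against untreated controls about 10 days after treatment in a greenhouse. Test chemicals, formulated with surfactant in non-phytotoxic solvent, were sprayed on soil preemergence or on 2-10 cm, one- to two-leaf plants postemergence.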
# [5] = tested on: wheat (Triticum aestivum); assay: Test A postemergence; conditions: Triticum aestivum, post-emergence, 240 h, 0 to 100 scale, read-out: Plant response rating, Wheat; for plant injury at 125 g/ha: 125 g ai/ha; for plant injury at 500 g/ha: 500 g ai/ha
# How it was run: as §2
# kochia (Kochia scoparia) [6] = assay: Test A postemergence; conditions: Bassia scoparia, post-emergence, 240 h, 0 to 100 scale, read-out: Plant response rating, Kochia; for pest or weed control at 125 g/ha: 125 g ai/ha; for pest or weed control at 500 g/ha: 500 g ai/ha
# How it was run: as §2
# [7] = tested on: pigweed (Amaranthus retroflexus); assay: Test A postemergence; conditions: Amaranthus retroflexus, post-emergence, 240 h, 0 to 100 scale, read-out: Plant response rating, Pigweed; for pest or weed control at 125 g/ha: 125 g ai/ha; for pest or weed control at 500 g/ha: 500 g ai/ha
# How it was run: as §2
# [8] = tested on: galium (catchweed bedstraw, Galium aparine); assay: Test A postemergence; conditions: Galium, post-emergence, 240 h, 0 to 100 scale, read-out: Plant response rating, Galium; for pest or weed control at 125 g/ha: 125 g ai/ha; for pest or weed control at 500 g/ha: 500 g ai/ha
# How it was run: as §2
# [9] = tested on: giant foxtail (Setaria faberii); assay: Test A postemergence; conditions: Setaria faberi, post-emergence, 240 h, 0 to 100 scale, read-out: Plant response rating, Foxtail, Giant; for pest or weed control at 125 g/ha: 125 g ai/ha; for pest or weed control at 500 g/ha: 500 g ai/ha
# How it was run: as §2
# [10] = tested on: Italian ryegrass (Lolium multiflorum); assay: Test A postemergence; conditions: Lolium multiflorum, post-emergence, 240 h, 0 to 100 scale, read-out: Plant response rating, Ryegrass, Italian; for pest or weed control at 125 g/ha: 125 g ai/ha; for pest or weed control at 500 g/ha: 500 g ai/ha
# How it was run: as §2
# corn (Zea mays) = assay: Test A postemergence; conditions: Zea mays, post-emergence, 240 h, 0 to 100 scale; for Corn plant response rating (crop injury, 0 = no effect, 100 = complete kill) at 125 g/ha: 125 g ai/ha; for Corn plant response rating (crop injury, 0 = no effect, 100 = complete kill) at 500 g/ha: 500 g ai/ha
# How it was run: as §2
# [11] = tested on: blackgrass (Alopecurus myosuroides); assay: Test A postemergence; conditions: Alopecurus myosuroides, post-emergence, 240 h, 0 to 100 scale, read-out: Plant response rating, Blackgrass; for pest or weed control at 125 g/ha: 125 g ai/ha; for pest or weed control at 500 g/ha: 500 g ai/ha
# How it was run: as §2
# [12] = tested on: barnyardgrass (Echinochloa crus-galli); assay: Test A postemergence; conditions: Echinochloa crus-galli, post-emergence, 240 h, 0 to 100 scale, read-out: Plant response rating, Barnyardgrass; for pest or weed control at 125 g/ha: 125 g ai/ha; for pest or weed control at 500 g/ha: 500 g ai/ha
# How it was run: as §2
# [13] = tested on: ragweed (common ragweed, Ambrosia elatior); assay: Test A preemergence; conditions: Ambrosia artemisiifolia, pre-emergence, 240 h; for pest or weed control at 125 g/ha: 125 g ai/ha, 0 to 100 scale (0 no effect, 100 complete control), read-out: Ragweed plant response rating; for pest or weed control at 500 g/ha: 500 g ai/ha, 0 to 100 scale, read-out: Plant response rating, Ragweed
# How it was run: as §2
# kochia (Kochia scoparia) [14] = assay: Test A preemergence; conditions: Bassia scoparia, pre-emergence, 240 h; for pest or weed control at 125 g/ha: 125 g ai/ha, 0 to 100 scale (0 no effect, 100 complete control), read-out: Kochia plant response rating; for pest or weed control at 500 g/ha: 500 g ai/ha, 0 to 100 scale, read-out: Plant response rating, Kochia
# How it was run: as §2
# [15] = tested on: pigweed (Amaranthus retroflexus); assay: Test A preemergence; conditions: Amaranthus retroflexus, pre-emergence, 240 h; for pest or weed control at 125 g/ha: 125 g ai/ha, 0 to 100 scale (0 no effect, 100 complete control), read-out: Pigweed plant response rating; for pest or weed control at 500 g/ha: 500 g ai/ha, 0 to 100 scale, read-out: Plant response rating, Pigweed
# How it was run: as §2
# [16] = tested on: giant foxtail (Setaria faberii); assay: Test A preemergence; conditions: Setaria faberi, pre-emergence, 240 h; for pest or weed control at 125 g/ha: 125 g ai/ha, 0 to 100 scale (0 no effect, 100 complete control), read-out: Foxtail, Giant plant response rating; for pest or weed control at 500 g/ha: 500 g ai/ha, 0 to 100 scale, read-out: Plant response rating, Foxtail, Giant
# How it was run: as §2
# [17] = tested on: Italian ryegrass (Lolium multiflorum); assay: Test A preemergence; conditions: Lolium multiflorum, pre-emergence, 240 h; for pest or weed control at 125 g/ha: 125 g ai/ha, 0 to 100 scale (0 no effect, 100 complete control), read-out: Ryegrass, Italian plant response rating; for pest or weed control at 500 g/ha: 500 g ai/ha, 0 to 100 scale, read-out: Plant response rating, Ryegrass, Italian
# How it was run: as §2
# [18] = tested on: barnyardgrass (Echinochloa crus-galli); assay: Test A preemergence; conditions: Echinochloa crus-galli, pre-emergence, 240 h; for pest or weed control at 125 g/ha: 125 g ai/ha, 0 to 100 scale (0 no effect, 100 complete control), read-out: Barnyardgrass plant response rating; for pest or weed control at 500 g/ha: 500 g ai/ha, 0 to 100 scale, read-out: Plant response rating, Barnyardgrass
# How it was run: as §2
# [19] = tested on: Italian ryegrass (Lolium multiflorum); assay: Test C postemergence; conditions: Lolium multiflorum, post-emergence, 336 h, Postemergence, scale 0 to 100, read-out: Plant response rating, Ryegrass, Italian; for pest or weed control at 31 g/ha: 31 g ai/ha; for pest or weed control at 62 g/ha: 62 g ai/ha; for pest or weed control at 125 g/ha: 125 g ai/ha
# wild oat (Avena fatua) = assay: Test C postemergence; conditions: Avena fatua, post-emergence, Postemergence, scale 0 to 100, read-out: Plant response rating, Oat, Wild; for pest or weed control at 31 g/ha: 31 g ai/ha; for pest or weed control at 62 g/ha: 62 g ai/ha; for pest or weed control at 125 g/ha: 125 g ai/ha
compound,measurement,setting,value
"Fc1cccc(Oc2ncc(C(F)(F)F)cn2)c1Oc1ncc(Cl)cn1 [Compound 42, 5-chloro-2-[2-fluoro-6-[[5-(trifluoromethyl)-2-pyrimidinyl]oxy]phenoxy]pyrimidine]",pest or weed control at 250 g/ha,[1],100%
same,plant injury at 250 g/ha,rice (Oryza sativa),80%
same,pest or weed control at 250 g/ha,[2],100%
same,pest or weed control at 250 g/ha,[3],100%
same,pest or weed control at 125 g/ha,[4],70%
same,pest or weed control at 500 g/ha,[4],100%
same,plant injury at 125 g/ha,[5],80%
same,plant injury at 500 g/ha,[5],100%
same,pest or weed control at 125 g/ha,kochia (Kochia scoparia) [6],100%
same,pest or weed control at 500 g/ha,kochia (Kochia scoparia) [6],100%
same,pest or weed control at 125 g/ha,[7],100%
same,pest or weed control at 500 g/ha,[7],100%
same,pest or weed control at 125 g/ha,[8],100%
same,pest or weed control at 500 g/ha,[8],100%
same,pest or weed control at 125 g/ha,[9],100%
same,pest or weed control at 500 g/ha,[9],100%
same,pest or weed control at 125 g/ha,[10],100%
same,pest or weed control at 500 g/ha,[10],100%
same,"Corn plant response rating (crop injury, 0 = no effect, 100 = complete kill) at 125 g/ha",corn (Zea mays),80%
same,"Corn plant response rating (crop injury, 0 = no effect, 100 = complete kill) at 500 g/ha",corn (Zea mays),100%
same,pest or weed control at 125 g/ha,[11],90%
same,pest or weed control at 500 g/ha,[11],100%
same,pest or weed control at 125 g/ha,[12],100%
same,pest or weed control at 500 g/ha,[12],100%
same,pest or weed control at 125 g/ha,[13],100%
same,pest or weed control at 500 g/ha,[13],100%
same,pest or weed control at 125 g/ha,kochia (Kochia scoparia) [14],100%
same,pest or weed control at 500 g/ha,kochia (Kochia scoparia) [14],100%
same,pest or weed control at 125 g/ha,[15],100%
same,pest or weed control at 500 g/ha,[15],100%
same,pest or weed control at 125 g/ha,[16],100%
same,pest or weed control at 500 g/ha,[16],100%
same,pest or weed control at 125 g/ha,[17],60%
same,pest or weed control at 500 g/ha,[17],100%
same,pest or weed control at 125 g/ha,[18],100%
same,pest or weed control at 500 g/ha,[18],100%
same,pest or weed control at 31 g/ha,[19],0%
same,pest or weed control at 62 g/ha,[19],10%
same,pest or weed control at 125 g/ha,[19],35%
same,pest or weed control at 31 g/ha,wild oat (Avena fatua),10%
same,pest or weed control at 62 g/ha,wild oat (Avena fatua),40%
same,pest or weed control at 125 g/ha,wild oat (Avena fatua),60%
"Fc1cccc(Oc2ncc(Cl)cn2)c1Oc1ncc(C(F)(F)F)cn1 [Compound 43, 5-chloro-2-[5-fluoro-6-[[5-(trifluoromethyl)-2-pyrimidinyl]oxy]phenoxy]pyrimidine]",pest or weed control at 250 g/ha,[1],90%
same,plant injury at 250 g/ha,rice (Oryza sativa),60%
same,pest or weed control at 250 g/ha,[2],100%
same,pest or weed control at 250 g/ha,[3],85%
same,pest or weed control at 125 g/ha,[4],70%
same,pest or weed control at 500 g/ha,[4],100%
same,plant injury at 125 g/ha,[5],80%
same,plant injury at 500 g/ha,[5],100%
same,pest or weed control at 125 g/ha,kochia (Kochia scoparia) [6],100%
same,pest or weed control at 500 g/ha,kochia (Kochia scoparia) [6],100%
same,pest or weed control at 125 g/ha,[7],100%
same,pest or weed control at 500 g/ha,[7],100%
same,pest or weed control at 125 g/ha,[8],100%
same,pest or weed control at 500 g/ha,[8],100%
same,pest or weed control at 125 g/ha,[9],90%
same,pest or weed control at 500 g/ha,[9],100%
same,pest or weed control at 125 g/ha,[10],80%
same,pest or weed control at 500 g/ha,[10],100%
same,"Corn plant response rating (crop injury, 0 = no effect, 100 = complete kill) at 125 g/ha",corn (Zea mays),70%
same,"Corn plant response rating (crop injury, 0 = no effect, 100 = complete kill) at 500 g/ha",corn (Zea mays),100%
same,pest or weed control at 125 g/ha,[11],90%
same,pest or weed control at 500 g/ha,[11],100%
same,pest or weed control at 125 g/ha,[12],90%
same,pest or weed control at 500 g/ha,[12],100%
same,pest or weed control at 125 g/ha,[13],70%
same,pest or weed control at 500 g/ha,[13],100%
same,pest or weed control at 125 g/ha,kochia (Kochia scoparia) [14],100%
same,pest or weed control at 500 g/ha,kochia (Kochia scoparia) [14],100%
same,pest or weed control at 125 g/ha,[15],100%
same,pest or weed control at 500 g/ha,[15],100%
same,pest or weed control at 125 g/ha,[16],100%
same,pest or weed control at 500 g/ha,[16],100%
same,pest or weed control at 125 g/ha,[17],50%
same,pest or weed control at 500 g/ha,[17],100%
same,pest or weed control at 125 g/ha,[18],100%
same,pest or weed control at 500 g/ha,[18],100%
same,pest or weed control at 31 g/ha,[19],0%
same,pest or weed control at 62 g/ha,[19],10%
same,pest or weed control at 125 g/ha,[19],15%
same,pest or weed control at 31 g/ha,wild oat (Avena fatua),5%
same,pest or weed control at 62 g/ha,wild oat (Avena fatua),20%
same,pest or weed control at 125 g/ha,wild oat (Avena fatua),60%
